Data: patent US10865213B2, “Max binders as MYC modulators and uses thereof” (Massachusetts Institute of Technology, priority 2016, dated 2020)
In brackets after ≈: the same amount, converted by molar mass. Where two headings read alike, the source gives them in different places.

Tests used:
c-Myc = c-Myc reporter gene assay (Qiagen), Firefly/Renilla ratio, HEK293T cells; type: cell-based
Method: The activity of Compound 1 against Myc was measured as a Firefly/Renilla ratio, using the Myc reporter assay (Qiagen) in HEK293T cells after treatment with Compound 1 for 16 hours. Results are expressed as a mean+/−SD (n=3). SD: standard deviation.
Select compounds described herein that were SMM assay positives were evaluated in several versions of a c-Myc reporter gene assay, including a commercial assay from Qiagen. The compounds' activities against c-Myc were measured as a Firefly/Renilla ratio, using the Myc reporter assay (Qiagen) in HEK293T cells after treatment with the compounds for 16 hours.

P493-6 Myc ON cells = test: Cell viability, CELL TITER GLO, P493-6 Myc ON; type: cell-based, human
Description: (§1) FIGS. 3A to 3B show exemplary results of an assay of cell viability and the selectivity of Compound 1 for cells expressing Myc and non-Myc expressing cells. Compound 1 affected cell viability after treatment with Compound 1 for 3 days, as measured using CELL TITER GLO (Promega) in a cancer cell line (P493-6, derived from human B-cells), where Myc is ON (FIG. 3A) or Myc is OFF (FIG. 3B). Results were expressed as a mean+/−SEM (n=3). RLU: Relative Luminescence Units.
(§2) The selectivity of Compound 1 for cells expressing Myc over non-Myc expressing cells in cancer cell line P493-6 (engineered cell line derived from human B-cells) was determined. Adding doxycycline to P493-6 growth media shuts off Myc transcription. Exemplary results are shown in FIGS. 3A to 3B, where cell viability was assessed by CELL TITER GLO assay (Promega). FIG. 3A depicts the assay results for cells expressing Myc, and FIG. 3B depicts the assay results for non-Myc expressing cells. […] The selectivity of other compounds described herein in cancer cell line cancer cell line P493-6 was also determined, and exemplary results are shown in Table 2, where viability was assessed by CELL TITER GLO assay (Promega).

P493-6 Myc OFF cells = test: Cell viability, CELL TITER GLO, P493-6 Myc OFF; type: cell-based, human
Description: as §1, §2

[1] = Aqueous solubility at 25° C.; type: physicochemical
[2] = Intrinsic clearance, liver microsomes; type: in vitro ADME; conditions: Intrinsic clearance (liver microsomes, human)
[3] = system: ST486, CA46, NCI-H1963, GBM4 cancer cell lines; test: Cell viability, CELL TITER GLO, cancer cell lines ST486, CA46, NCI-H1963, GBM4; type: cell-based; conditions: 3 days treatment (4 days GBM4)
Method: Compound 1 affected cell viability after treatment with Compound 1 for 3 days (and 4 days for GBM4 and NHA), as measured using CELL TITER GLO (Promega) in 4 different cancer cell lines: ST486 (Burkitt's lymphoma; FIG. 2), CA46 (Burkitt's lymphoma; FIG. 2), NCI-H1963 (small cell lung cancer; FIG. 2), and GBM4 (glioblastoma; FIG. 2). The cell viability of normal human astrocytes (NHA) was also assayed. Results were expressed as a mean+/−SEM (n=2). The effect of Compound 1 on cell viability in several cancer cell lines and normal human astrocytes (NHA) was determined. The cancer cell lines employed in the assay included those corresponding to Burkitt's lymphoma (ST486 and CA46), small cell lung cancer (NCI-H1963), and glioblastoma (GBM4). The cell viability of normal human astrocytes (NHA) was also assayed. Exemplary results are shown in FIG. 2, where viability was assessed by CELL TITER GLO assay (Promega). […] The effects of other compounds described herein on cell viability in several cancer cell lines were also determined, and exemplary results are shown in Table 2, where viability was assessed by CELL TITER GLO assay (Promega).

P3HR1 = test: Viability assay in P3HR1; type: cell-based; conditions: Homo sapiens, P3HR-1; P3HR1, non-engineered cell line
ST-486 = test: Viability assay in ST-486; type: cell-based; conditions: Homo sapiens, ST486; ST-486, non-engineered cell line
c-Myc/Max heterodimer = c-Myc/Max heterodimer (Homo sapiens, UniProt P61244); test: Electrophoretic mobility shift assay, c-Myc/Max heterodimer; type: binding
Description: (§3) This leads to a hypothesize that KI-MS2-008 stabilizes the Max homodimer.

Max homodimer [4] = target: T1, Max homodimer (Homo sapiens, UniProt P61244); test: EMSA with recombinant Max, homodimer binding to DNA
Description: as §3

Max homodimer [5] = target: T1, Max homodimer; test: fPLC quantification of Max monomer vs. Max homodimer; type: binding; conditions: monomer vs. homodimer populations
Description: as §3

Myc = Myc protein levels; type: cell-based; conditions: recovered by proteasome inhibition
Myc transcript = test: qPCR of Myc transcript levels; type: cell-based
MYC-driven T-ALL model = test: MYC-driven T-ALL / lymphoma model, Luc-labeled cells transplanted into NSG mice; type: in vivo
[6] = Table 3, read-out: IC50 Reporter assay
[7] = Table 3, read-out: IC50 Myc OFF
[8] = Homo sapiens, HEK-293T, HEK293T cells, 16 hours, Table 2, read-out: c-Myc reporter assay IC50
[9] = Homo sapiens, HEK-293T, read-out: IC50 value in Myc reporter assay

T1 sequence (P61244 whole entry): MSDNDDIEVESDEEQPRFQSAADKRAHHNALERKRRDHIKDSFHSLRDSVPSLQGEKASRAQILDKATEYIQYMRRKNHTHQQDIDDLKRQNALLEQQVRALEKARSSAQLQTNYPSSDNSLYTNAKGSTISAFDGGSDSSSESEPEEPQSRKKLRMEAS
Chain of c-Myc/Max heterodimer (P61244 whole entry, one chain of several): as the sequence (P61244 whole entry) above

O=C1N(CCS(=O)(=O)c2ccccc2)Cc2ccccc2[C@@H]2OC(c3ccc(OCCCO)cc3)=N[C@]12Cc1ccccc1 (single isomer, unassigned) [15^a]
IC50 (c-Myc; HEK293T cells, 16 hours, Table 2, read-out: c-Myc reporter assay IC50): 4.28 µM | IC50 (c-Myc; Table 3, listed as 15^b, read-out: IC50 Reporter assay): 4.74 µM | IC50 (c-Myc; Table 3, listed as 15^c, read-out: IC50 Reporter assay): 4.77 µM | IC50 (c-Myc; [6]): 11.7 µM | IC50 (P493-6 Myc ON cells; Table 3, listed as 15^b, read-out: IC50 Myc ON): 8.49 µM | IC50 (P493-6 Myc ON cells; Table 3, listed as 15^c, read-out: IC50 Myc ON): 16.6 µM | IC50 (P493-6 Myc ON cells; Table 3, read-out: IC50 Myc ON): 14.5 µM | IC50 (P493-6 Myc OFF cells; [7]): > 50 µM

O=C1N(CCS(=O)(=O)c2ccccc2)Cc2ccccc2[C@@H]2OC(c3ccc(OCCCO)cc3)=N[C@]12Cc1ccccc1 [Compound 1]
IC50 (c-Myc; [8]): 1.99 µM | IC50 (c-Myc; [9]): 2.77 µM | IC50 (P493-6 Myc ON cells; Homo sapiens, P493-6, CELL TITER GLO, Table 2, read-out: P493-6 Myc ON Viability in cells): 6.8 µM | Selectivity for cells expressing Myc over non-Myc expressing cells (P493-6 Myc ON cells; P493-6, Myc ON vs. Myc OFF (doxycycline)): demonstrated a selectivity for cells expressing Myc | IC50 (P493-6 Myc OFF cells; Homo sapiens, P493-6, CELL TITER GLO, Table 2, read-out: P493-6 Myc OFF Viability in cells): 58.1 µM | solubility ([1]; Aqueous solubility (simulated gastric fluid)): 51.2 µM (≈ 31.3 µg/mL) | solubility ([1]; aqueous buffer, Aqueous solubility (PBS, pH 7.4)): 9.2 µM (≈ 5.62 µg/mL) | solubility ([1]; fassgf or other biorelevant, Aqueous solubility (simulated intestinal fluid)): 200 µM (≈ 122 µg/mL) | half-life [2]: 21 min | Effect on cell viability [3]: demonstrated an effect in cell viability

O=C1NCc2ccccc2[C@@H]2OC(c3ccccc3)=N[C@H]12 [Compound 1a]
IC50 (c-Myc; [6]): > 50 µM

O=C1NCc2ccccc2[C@@H]2OC(c3ccccc3)=N[C@]12Cc1ccccc1 [Compound 2a]
IC50 (c-Myc; [6]): 16.8 µM | IC50 (P493-6 Myc ON cells; Table 3, read-out: IC50 Myc ON): > 50 µM | IC50 (P493-6 Myc OFF cells; [7]): > 50 µM

O=C1N(CCS(=O)(=O)c2ccccc2)Cc2ccccc2[C@@H]2OC(c3ccccc3)=N[C@]12Cc1ccccc1 [Compound 3a]
IC50 (c-Myc; [6]): 6.19 µM | IC50 (P493-6 Myc ON cells; Table 3, read-out: IC50 Myc ON): 11.4 µM | IC50 (P493-6 Myc OFF cells; [7]): > 50 µM

C=CCN1Cc2ccccc2[C@@H]2OC(c3ccccc3)=N[C@]2(Cc2ccccc2)C1=O [Compound 4a]
IC50 (c-Myc; [6]): 7.67 µM | IC50 (P493-6 Myc ON cells; Table 3, read-out: IC50 Myc ON): 31.8 µM | IC50 (P493-6 Myc OFF cells; [7]): > 50 µM

O=C(CCCCC1SCC2NC(=O)NC21)NCCOCCOCCNC(=O)OCCCOc1ccc(C2=N[C@]3(Cc4ccccc4)C(=O)N(CCS(=O)(=O)c4ccccc4)Cc4ccccc4[C@@H]3O2)cc1 (stereo partly drawn) [Compound 5]
IC50 (c-Myc; [8]): 5.38 µM | IC50 (c-Myc; [9]): 5.4 µM

COC(=O)[C@@]1(Cc2ccccc2)N=C(c2ccccc2)O[C@H]1c1ccccc1CN=[N+]=[N-] [Compound 6, Methyl (4S,5S)-5-(2-(azidomethyl)phenyl)-4-benzyl-2-phenyl-4,5-dihydrooxazole-4-carboxylate]
IC50 (c-Myc; [8]): 4.67 µM

CCOC(=O)CN1Cc2ccccc2[C@@H]2OC(c3ccccc3)=N[C@]2(Cc2ccccc2)C1=O [Compound 7a]
IC50 (c-Myc; [6]): 3.38 µM | IC50 (P493-6 Myc ON cells; Table 3, read-out: IC50 Myc ON): 39.3 µM | IC50 (P493-6 Myc OFF cells; [7]): > 50 µM

O=C(O)CN1Cc2ccccc2[C@@H]2OC(c3ccccc3)=N[C@]2(Cc2ccccc2)C1=O [Compound 8a]
IC50 (c-Myc; [6]): > 50 µM | IC50 (P493-6 Myc ON cells; Table 3, read-out: IC50 Myc ON): > 50 µM | IC50 (P493-6 Myc OFF cells; [7]): > 50 µM

O=C1N(CCO)Cc2ccccc2[C@@H]2OC(c3ccccc3)=N[C@]12Cc1ccccc1 [Compound 10a]
IC50 (c-Myc; [6]): 2.15 µM

C#CCNC(=O)CN1Cc2ccccc2[C@@H]2OC(c3ccccc3)=N[C@]2(Cc2ccccc2)C1=O [Compound 11a]
IC50 (c-Myc; [6]): 10.1 µM

C#CCN(CC(=O)NCCNC(=O)CN1Cc2ccccc2[C@@H]2OC(c3ccccc3)=N[C@]2(Cc2ccccc2)C1=O)C(=O)CCC1(C)N=N1 [Compound 12a]
IC50 (c-Myc; [6]): 18.7 µM

O=C1N(CCS(=O)(=O)c2ccccc2)Cc2ccccc2[C@@H]2OC(c3ccccc3)=N[C@]12Cc1ccccc1 [KI-MS2-008]
IC50 (P3HR1): 51.1 µM | IC50 (ST-486): 18.7 µM | Disruption of c-Myc/Max heterodimer (EMSA) (c-Myc/Max heterodimer): does not disrupt the c-Myc/Max heterodimer | Max homodimer binding to DNA (EMSA) (Max homodimer [4]): dose-dependent increase of Max homodimer binding to DNA | Induced dimerization of the Max homodimer (Max homodimer [5]): 9.9% | Myc protein levels (Myc): decreases Myc protein levels | Myc transcript levels (Myc transcript): decreases Myc transcript levels | Tumor volume (MYC-driven T-ALL model): impacts tumor volume
